Data on two compounds can be found in patent US20110281852A1 (priority 2010, published 2011).

Data set [1] can be described thus: Serum triglyceride assay in mice. The format is in vivo, mouse. How it is done: (§1) Six mice per subgroup were obtained finally.
Serum glucose, triglyceride, cholesterol assay: Blood samples from each mouse were collected and serum was separated by centrifugation for the measurement of levels of glucose, triglyceride and total cholesterol. Serum glucose concentrations were analyzed using Glucose (HK) Assay Kit (Sigma-aldrich, Saint Louis, Mo., USA). Serum triglyceride concentrations were analyzed using Serum Triglyceride Determination Kit (Sigma-aldrich, Saint Louis, Mo., USA). Serum cholesterol concentrations were analyzed using Amplex® Red Cholesterol Assay Kit (Invitrogen, Carlsbad, Calif., USA). All experimental assays were done according to the manufacturer's instructions.

The next data set in a line: in vitro. As to conditions: mouse, 3T3-L1 cells during differentiation. How it is done:
Cell culture: 3T3-L1 cells were cultured at 37° C. in a humidified 5% CO2 atmosphere and grown in a culture medium (CM) (DMEM supplemented with 10% FBS, 100 units/ml penicillin and […] streptomycin). Differentiation conditions for 3T3-L1 were as described (Dowell et al, 2000). Briefly, confluent 3T3-L1 cells were maintained in culture medium for 48 hrs (day 0). Cells were placed in Differentiation Medium 1 (DM1) (CM with 167 nM insulin, 520 μM isobutylmethylxanthine (IBMX), and 1 μM dexamethasone) for a further 48 hrs (Day 2). The medium was then changed to differentiation medium 2 (DM2) (CM with 167 nM insulin) for a further 48 hrs (Day 4). The DM2 was then changed every 48 hrs for an additional 4 days (Day 8).
Culture medium was removed at 24, 48 and 72 hrs and MTT (0.5 mg/ml in pure DMEM, 50 μl/well) was added.

In data set [2] the test system is PPARγ. The data set can be described thus: Real-Time RT-PCR, PPARγ mRNA in epididymal fat of FD mice. It counts as in vivo, mouse. How it is done:
RNA and protein purification and quantification from epididymal fat tissues: RNA and protein was isolated from 60 mg of epididymal fat tissues with Trizol (Invitrogen, Carlsbad, Calif., USA) following the protocol recommended by the manufacturers. RNA was dissolved in pure water and quantified at 260/280 nm, and sample integrity was checked by 1.5% agarose gel electrophoresis. Protein concentration was determined using the Micro BCA Protein Assay Kit (Fisher Scientific, Pittsburgh, Pa., USA) according to the manufacturer's instructions.
Quantitative Real-Time RT-PCR: Real-Time reverse transcriptase polymerase chain reaction (RT-PCR) analysis was used to measure mRNA expression of genes PPARγ, C/EBPα, GATA-2 and GATA-3 in the control of β-actin. Total RNA (0.8 μg) from each sample was used for a reverse transcription reaction using the TaqMan Reverse Transcription Reagents (Applied Biosystems, Foster City, Calif., USA) following the manufacturer's instructions. PCR was done using the SYBR green Master Mix (Applied Biosystems, Foster City, Calif., USA) following the manufacturer's instructions. The cycling conditions of amplification were as follows: an initial step of denaturation at 95° C. for 10 min, 40 cycles of denaturation at 95° C. for 30 s, annealing at 55° C. for 30 s, and elongation at 72° C. for 30 s. Real-Time PCR was performed using Mx3000P Real-Time Thermocyclers (Stratagene, La Jolla, Calif., USA). The relative mRNA levels of these genes were calculated by 2-delta delta CT method and normalized with control-treated groups.
(In qPCR the cycle at which signal appears reflects the starting amount.)

Data set [3] has as its system low density lipoprotein receptor (LDLR). As to the kind of experiment: Real-time RT-PCR, LDLR mRNA in 3T3-L1. It counts as cell-based, mouse. Particulars: 8 days. From the text: (§2) Realtime RT-PCR: Real-time reverse transcriptase polymerase chain reaction (RT-PCR) analysis was used to measure mRNA expression of genes SREBP-1, PPARγ, C/EBPα, low density lipoprotein receptor (LDLR), Adiponectin, and fatty acid synthase (FAS) under the control of β-actin. Briefly, total RNA was isolated from 3T3-L1 cells following treatment for 8 days with Trizol reagent (Invitrogen, Carlsbad, Calif., USA) according to the manufacturer's instruction. RNA was quantified using absorption of light at 260 nm, and sample purity was checked by OD 260 nm/280 nm. 0.8 μg of total RNA from each sample was used for reverse transcription reaction using the TaqMan Reverse Transcription Reagents (Applied Biosystems, Foster City, Calif., USA) according to the manufacturers' instructions. PCR was done using the SYBR green Master Mix (Applied Biosystems, Foster City, Calif., USA) according to the manufacturers' instructions. The temperature cycling conditions of amplification were as follows: an initial step of denaturation at 95° C. for 10 min, 40 cycles of denaturation at 95° C. for 30 s, annealing at 55° C. for 30 s, and elongation at 72° C. for 30 s. Realtime RT-PCR was performed using Mx3000P Realtime Thermocyclers (Statagene, La Jolla, Calif., USA). The relative mRNA levels of these genes were calculated by 2-delta delta CT method and normalized with control groups.

A short description of data set [4]: Food intake, high-fat diet and normal diet mice. It counts as in vivo, mouse.
Source text: as §1

Another data set deals with C/EBPα. The data set can be described thus: Real-time RT-PCR, C/EBPα mRNA in 3T3-L1. As to conditions: 8 days. The format is cell-based, mouse.
Source text: as §2

The subject of data set [5] is PPARγ. The data set can be described thus: Immunoblotting, PPARγ protein in 3T3-L1. The format is cell-based, mouse. Particulars: 8 days.
Protocol: Immunoblotting: Protein expression of SREBP-1, PPARγ, and C/EBPα relative to 3-actin was assessed by Western Blot. Total proteins were isolated from 3T3-L1 cells treated with compounds or vehicles for 8 days. The cells were washed twice with PBS, lysed in a HEPES-Tx-PI buffer (910 mM HEPES, 5 mM EDTA, 350 mM Sucrose, 1 μg/ml leupeptin, 1 μg/ml pepstatin, 1% Triton-X, 1 mM PMSF), processed with 25G needles and centrifuged at 12,000 rpm for 5 min. Protein concentration was determined using the Micro BCA Protein Assay Kit (Fisher Scientific, Pittsburgh, Pa., USA) following the manufacturers instructions. 25 μg proteins were loaded and separated by electrophoresis using the BioRad Electrophoretic System (65 V for 7 hour). The proteins were then transferred to nitrocellulose membranes at 40 V overnight. The membrane was blocked for 1 hour at room temperature in 5% nonfat milk in Tris-buffered saline (TBS), then washed with Tween-20-TBS (TTBS, 0.1% Tween-20) three times (15 min, 5 min, 5 min), followed by incubation with primary antibodies SREBP-1 (dilution 1:200), PPARγ (dilution 1:200), C/EBPα (dilution 1:200) (all purchased from Santa Cruz Biotechnology, Santa Cruz, Calif., USA) and 3-actin (dilution 1:1000, Sigma-Aldrich, St. Louis, Mo., USA) at room temperature for 2 hours. […]
The test system of data set [6] is SERT (serotonin transporter). As to the kind of experiment: Immunoblot, SERT protein in RN46A cells. It counts as cell-based. In general terms: Immunoblotting shows a protein as a band on a membrane.
Protocol: Immunoblot Analysis: Protein expression of SERT was assessed by Western Blot. Total proteins were isolated from RN46A cells treated with compounds or vehicles. The cells were washed twice with PBS, lysed in a lysis buffer containing HEPES-Tx-PI buffer: 910 mM HEPES, 5 mM EDTA, 350 mM Sucrose, 1 μg/ml leupeptin, 1 μg/ml pepstatin, 1% Triton-X, 1 mM PMSF), processed with a 25G needle and centrifuged at 10,000 rpm for 5 min. Protein concentration was determined using the Micro BCA Protein Assay Kit (Fisher Scientific, Pittsburgh, Pa., USA) according to the manufacturers instructions. 25 μg proteins were loaded and separated by electrophoresis using the BioRad Electrophoretic System (60 V for 1 hour followed by 90 V for 5 hours). The proteins were then transferred to nitrocellulose membranes at 35 V overnight. The membrane was blocked for 1 hour at room temperature in 5% nonfat milk in Tris-buffered saline (TBS), then washed with Tween-20-TBS (TTBS, 0.1% Tween-20) three times (15 min, 5 min, 5 min), followed by incubation with primary antibodies SERT (dilution 1:200) (Antibody was purchased from Santa Cruz Biotechnology, Santa Cruz, Calif., USA) and β-actin (dilution 1:1000) (Antibody was purchased from Sigma-aldrich, USA) at room temperature for 2 hours. […]
The mark [7] stands for this setting: FD mice, 1.5 mg/kg/day, 36 days.
The mark [8] stands for this setting: 8 μM berberine + 15 μM clozapine.
[9] abbreviates: 8 μM berberine + 50 μM risperidone.

With `COc1ccc2cc3[n+](cc2c1OC)CCc1cc2c(cc1-3)OCO2.[Cl-]` [berberine, Berberine (Chloride Form)], the “reduction of serum triglyceride level vs control treated group” value in data set [1] (FD mice, 0.75 mg/kg/day) amounted to 31.2%; in data set [1] (FD mice, 1.5 mg/kg/day), 25.2%; in data set [1] (FD mice, 3 mg/kg/day) it was 37.8%. In addition, the serum triglyceride level in data set [1] (FD mice, 0.75 mg/kg/day, 36 days (control 135.6±17.0)) amounted to 93.2 ± 20.8 mg/dL; in data set [1] (setting [7]), 101.4 ± 9.7 mg/dL; in data set [1] (FD mice, 3 mg/kg/day, 36 days), 84.3 ± 18 mg/dL; in data set [1] (ND mice, 3 mg/kg/day (control 70.7±14)) it was 70.7 ± 12.8 mg/dL. The same compound had a cytotoxicity at 2 days, 8 μM in the data set “in vitro” of 15.6%. The cytotoxicity at 4 days, 8 μM in “in vitro” stood at 12.8%. The compound further had a cytotoxicity at 6 days, 8 μM in the data set “in vitro” of 12.6%. This compound also yielded a cytotoxicity at 8 days, 8 μM in the data set “in vitro” of 11.4%. The entries for the “reduction of PPARγ mRNA expression vs control treated group” value in the data set on PPARγ [2] (0.75 mg/kg/day), in the data set with PPARγ [2] (1.5 mg/kg/day) and with PPARγ [2] (3 mg/kg/day) were 56.1%, 57.7% and 78.3%, respectively. The “decrease of LDLR mRNA expression vs clozapine treated group” value in data set [3] (setting [8]) worked out at 82.3%. Also, the “decrease of LDLR mRNA expression vs risperidone treated group” value in data set [3] (setting [9]) was 90%. Besides, the food intake in data set [4] (FD mice, 0.75 mg/kg/day, 36 days (control 3.5±0.4)) was found to be 3.0±0.3 g/mouse/day; in data set [4] (setting [7]) it was 2.7±0.5 g/mouse/day; in data set [4] (FD mice, 3 mg/kg/day, 36 days) it was 2.5±0.2 g/mouse/day; in data set [4] (ND mice, 3 mg/kg/day, 36 days (control 3.8±0.7)), 3.3±0.5 g/mouse/day. Further, the “decrease of C/EBPα mRNA expression vs clozapine treated group” value in the data set with C/EBPα (setting [8]) came to 94.7%. In addition, the “decrease of C/EBPα mRNA expression vs risperidone treated group” value in the data set on C/EBPα (setting [9]) is recorded as 96.4%. In addition, in the data set with PPARγ [5] (setting [8]), the “decrease of PPARγ protein expression vs clozapine treated group” value stood at 76%. Besides, the “decrease of PPARγ protein expression vs risperidone treated group” value in the data set with PPARγ [5] (setting [9]) amounted to 85.7%.

evodiamine: the “SERT protein expression profile (Western blot)” value in data set [6] is listed as “consistent with its mRNA expression profile”.
